In US20090298857A1, “Treatment of Neurodegenerative Diseases Through Inhibition of HSP90” (SLOAN-KETTERING INSTITUTE FOR CANCER RESEARCH, priority 2006, published 2009):

Key:
[1] = test system: p35 and tau phosphorylation in whole brains; experiment: Five day PU-DZ8 treatment of nine-month old JNPL3 mice; format: in vivo
Excerpt: Transgenic mice: Transgenic mice, JNPL3 line (59) overexpressing mutant human tau (P301L, 4R0N) were used in this study. Mice were heterozygous and on a mixed hybrid genetic background composed of C57BL/DBA2/SW, as published in ref. 59. These mice develop NFTs in the basal telencephalon, diencephalon, brainstem, and spinal cord, with severe pathology accompanied by degeneration in the spinal cord leading to dystonia, paralysis, and death in mice >12 months in age. Nine month-old male JNPL3 mice (n=2) were treated intraperitoneally with PU-DZ8 or vehicle for 5 days. Mice were sacrificed 12 h after last treatment by cervical dislocation under anesthesia.
To further examine the effect of Hsp90 on tau phosphorylation, we used the JNPL3 line of mice expressing mutant (P301L) tau protein (59). Genetic analyses have linked mutations in the tau gene to FTDP-17 (60, 61). Over 20 distinct pathogenic mutations have been identified, with P301L as the most common mutation in tauophaties (33). […] The tau protein in JNPL3 is predominantly human and is phosphorylated at multiple sites: T181 (AT270). S202/T205 (AT8), T212 (AT100), T231 (AT180), S262, S396/S404, S409 and S422 (59, 62). […] The degree of p35 expression translated well into alleviation of phosphorylation. […] However, in mice where effects were more prominent and p35 expression declined to approximately 20% as compared to control, a significant effect on tau phosphorylation at S202/T205 and T212/S214 and a 50% reduction on T231 was observed. We could not detect a significant amount of tau phosphorylation at T181, site found to be hyperphosphorylated in PHF, tangles and neurofilaments (65). Again, whole brain expression of cdk5 was not affected (FIG. 3).

[2] = test system: mutant tau (HT7), Hsp70, p35; experiment: One dose PU-DZ8 in 6 month JNPL3 mice, S1 fraction Western blot (FIG. 9); format: in vivo; details: one dose 75 mg/kg IP, subcortical S1
Method: JNPL3 female mice 6 months of age were treated IP with the Hsp90 inhibitor PU-DZ8 (75 mg/kg) and sacrificed various times as indicated in FIG. 9. Brains were divided in subcortical and cortical regions and processed using the Greenberg and Davies extraction protocol (77). Sarkosyl soluble fractions (S1) extracted from the subcortical region were analyzed by WB for p35, cdk5, mutant tau (HT7), Hsp90 and Hsp70. Protein bands were normalized to actin and plotted as relative change from untreated mice.

CC(C)NCCCn1c(Cc2cc3c(cc2I)OCO3)nc2c(N)nc(F)nc21 [PU-DZ8]
levels of compound in brain ([1]; 5 days i.p.): Pharmacologically relevant levels | whole brain expression of cdk5 ([1]; 5 days i.p.): not affected | reduction in p35 levels ([1]; 5 days i.p., whole brain): 50% | effect on tau phosphorylation at S202/T205 (Ab AT-8) ([1]; at 50% reduction in p35 levels): approximately similar effect | reduction of phosphorylation on T212/S214 (Ab AT-100) ([1]; at 50% reduction in p35 levels): almost completely | effect on tau phosphorylated at T231 (Ab AT-180) ([1]; at a reduction by 50% in p35 expression): No significant effect | p35 expression as compared to control ([1]; mice where effects were more prominent): approximately 20% | reduction of tau phosphorylation on T231 ([1]; mice with p35 expression approximately 20% of control): 50% | chaperone levels (hsp70) [2]: hsp70 increase | mutant protein mtau (HT7) [2]: degradation
